Measured values published in patent US20050214938A1, “Cardiac bodies: clusters of spontaneously contracting cells for regenerating cardiac function” (priority 2004, published 2005).

What was measured:
[1] = test system: hES-derived cardiomyocytes; assay: Pharmacological response: contraction rate of beating areas; assay type: cell-based, human; conditions: for chronotropic effect: FIG. 5 Panels B-E
Experimental: EBs were plated on to gelatin-coated 24-well plates and allowed to differentiate, as in Example 2. Contracting cardiomyocytes at differentiation day 15-21 were used for examining pharmacological response. The frequency of the spontaneous beating was measured by counting the contraction rate of the beating areas maintained in the differentiation medium in a 37° C. heating chamber of an inverted microscope. The cells were then incubated with test compounds in the incubator for 20-30 min, and observed for contraction rate. Dose-dependent effects were determined by cumulatively applying of increasing concentrations of each substrate. Data represent the mean pulsation rate±standard error of the mean measured on 10-20 beating areas.
Differentiated cells were incubated with various concentrations of the drug and the number of beats per minute was counted. The cells were then washed with medium, maintained in differentiation medium for 24 h and observed for the time taken to recover contractility.

[2] = test system: cardiomyogenic cell line from bone marrow stroma; conditions: treated for 24 hours; cited from earlier work
[3] = test system: hES cells of the H1 or H9 line
Experimental: hES cells of the H1 or H9 line being cultured as embryoid bodies were treated at differentiation day 1-4,4-6 or 6-8 with 5-aza-deoxy-cytidine, a cytosine analog that affects DNA methylation, thereby activating gene expression. Cells were harvested at day 15, and analyzed for cardiac α-MHC by real-time RT-PCR.
The RT-PCR assay from Example 3 was adapted for the Taqman™ 7700 sequence detection system using the same primers, amplifying for 40 cycles at 95° C. for 15 sec and 60° C. for 1 min. 18S ribosomal RNA was amplified for a control using a kit for Taqman™ ribosomal RNA control reagents (Applied Biosystems). Reactions were analyzed by ABI Prism™ 7700 Sequence Detection system.
Other reagents examined for an ability to induce cardiomyocyte differentiation included dimethyl sulfoxide (DMSO) and all-trans retinoic acid (RA).
Retinoic acid was applied to differentiating hES cultures at doses between 10^−9 and 10^−[…].

[4] = test system: hES cells of the H7 line; assay: Direct differentiation paradigm without embryoid body stage; assay type: cell-based, human; conditions: 10 μM at day 10-12 or 12-14
Experimental: Cardiomyocyte differentiation was also achieved in a direct differentiation paradigm. Undifferentiated hES cells of the H7 line were dissociated and plated directly onto gelatin-coated plates without going through an embryoid body stage. The plated cells were cultured in differentiation medium (80% KO-DMEM, 1 mM L-glutamine, 0.1 mM p-mercaptoethanol, 1% amino acids, and 20% fetal bovine serum). Contracting cardiomyocytes were found at day 18 in cultures treated with 10 μM 5-aza-deoxy-cytidine at day 10-12 or 12-14, and at later times in all cultures.

[5] = test system: mouse ES cells; conditions: Wobus et al. 1997; cited from earlier work

Compound: CC(C)(C)NCC(O)c1cc(Cl)c(N)c(Cl)c1 (centres unmarked) [clenbuterol]
- beating rate after treatment ([1]; cells taken at Day 72, 1-10 nM, from about 72 beats/min, p<0.005): about 98 beats/min

Compound: Nc1ncn([C@@H]2O[C@H](CO)[C@@H](O)[C@H]2O)c(=O)n1 [5-azacytidine]
- cells forming myotube-like structures, acquiring cardiomyocyte markers and beginning to beat [2]: 30%

Compound: Nc1ncn([C@H]2C[C@H](O)[C@@H](CO)O2)c(=O)n1 [5-aza-deoxy-cytidine]
- expression of cardiac α-MHC ([3]; 1 to 10 μM at day 6-8, harvested day 15): significantly increased
- day at which contracting cardiomyocytes were found [4]: 18 days

Compound: CNC[C@H](O)c1cccc(O)c1 [phenylephrine]
- chronotropic effect [1]: positive chronotropic effects

Compound: CC(C)NCC(O)c1ccc(O)c(O)c1 (centres unmarked) [isoprenaline]
- chronotropic effect [1]: positive chronotropic effects

Compound: COc1ccc([C@@H]2Sc3ccccc3N(CCN(C)C)C(=O)[C@@H]2OC(C)=O)cc1 [diltiazem]
- beating areas that stopped contraction ([1]; 10^−5 M): 100%
- inhibition of beating rate ([1]; differentiation day 15-21, 20-30 min incubation, increasing concentrations): concentration-dependent manner

Compound: CC1=C(/C=C/C(C)=C/C=C/C(C)=C/C(=O)O)C(C)(C)CCC1 [RA, all-trans retinoic acid]
- beating cells compared with untreated cultures ([3]; days 4-8, 8-15, or 4-15, doses between 10^−9 and 10^−5 μM): no increase
- effect on cardiac differentiation [5]: accelerates ES cell-derived cardiac differentiation

Compound: C[S+](C)[O-] [DMSO, dimethyl sulfoxide]
- toxicity to the cells [3]: toxic
- beating areas compared with non-treated cultures ([3]; 0.5%, days 0-4): fewer beating areas
- beating cells ([3]; 0.8% or 1%): absent
- α-MHC expression compared with untreated cultures ([3]; DMSO treatment): significant reduction
